Assay results published in the supplement of paper PMC10307832.

How the values were obtained:
Assay in all cases: relative viability (nuclei count vs DMSO), 5 days (fraction); higher = more cells survive
NCI-H3122 = tested on: NCI-H3122
Outline: (§1)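 Relative viability is defined as nuclei in treated wells over nuclei in vehicle wells. Duplicate plates were run and medians reported. Lung cancer cell lines in 1536-well plates were dosed by pin tool one day after seeding, with one drug or with a fixed anchor-drug dose plus five library-drug doses (not always all listed) in √10 steps, and nuclei were counted after 5 days.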

NCI-H1355 = tested on: NCI-H1355
Outline: as §1

NCI-H1734 = tested on: NCI-H1734
Outline: as §1

NCI-H2085 = tested on: NCI-H2085
Outline: as §1

HCC-366 = tested on: HCC-366
Outline: as §1

ABC-1 = tested on: ABC-1
Outline: as §1

NCI-H2228 = tested on: NCI-H2228
Outline: as §1

ChaGo-K-1 = tested on: ChaGo-K-1
Outline: as §1

EPLC-272H = tested on: EPLC-272H
Outline: as §1

NCI-H1944 = tested on: NCI-H1944
Outline: as §1

SW 1573 = tested on: SW 1573
Outline: as §1

NCI-H2009 = tested on: NCI-H2009
Outline: as §1

NCI-H2023 = tested on: NCI-H2023
Outline: as §1

NCI-H2347 = tested on: NCI-H2347
Outline: as §1

HCC-15 = tested on: HCC-15
Outline: as §1

HCC-44 = tested on: HCC-44
Outline: as §1

LCLC-103H = tested on: LCLC-103H
Outline: as §1

COR-L23 = tested on: COR-L23
Outline: as §1

HCC-827 = tested on: HCC-827
Outline: as §1

PC-14 = tested on: PC-14
Outline: as §1

NCI-H2405 = tested on: NCI-H2405
Outline: as §1

NCI-H1793 = tested on: NCI-H1793
Outline: as §1

Cc1cn(-c2cc(NC(=O)c3ccc(C)c(Nc4nccc(-c5cccnc5)n4)c3)cc(C(F)(F)F)c2)cn1 [Nilotinib] + CC(=O)c1c(C)c2cnc(Nc3ccc(N4CCNCC4)cn3)nc2n(C2CCCC2)c1=O [Palbociclib] (partner 0.5 µM)
relative viability (NCI-H3122; first compound 0.001 µM): 0.0877 | relative viability (NCI-H3122; first compound 0.003162 µM): 0.191 | relative viability (NCI-H3122; first compound 0.01 µM): 0.243 | relative viability (NCI-H3122; first compound 0.03162 µM): 0.198 | relative viability (NCI-H3122; first compound 0.1 µM): 0.175 | relative viability (NCI-H1355; first compound 0.001 µM): 0.423 | relative viability (NCI-H1355; first compound 0.003162 µM): 0.457 | relative viability (NCI-H1355; first compound 0.01 µM): 0.486 | relative viability (NCI-H1355; first compound 0.03162 µM): 0.494 | relative viability (NCI-H1355; first compound 0.1 µM): 0.468 | relative viability (NCI-H1734; first compound 0.001 µM): 0.333 | relative viability (NCI-H1734; first compound 0.003162 µM): 0.36 | relative viability (NCI-H1734; first compound 0.01 µM): 0.372 | relative viability (NCI-H1734; first compound 0.03162 µM): 0.312 | relative viability (NCI-H1734; first compound 0.1 µM): 0.317 | relative viability (NCI-H2085; first compound 0.001 µM): 0.525 | relative viability (NCI-H2085; first compound 0.003162 µM): 0.489 | relative viability (NCI-H2085; first compound 0.01 µM): 0.536 | relative viability (NCI-H2085; first compound 0.03162 µM): 0.498 | relative viability (NCI-H2085; first compound 0.1 µM): 0.393 | relative viability (HCC-366; first compound 0.001 µM): 0.244 | relative viability (HCC-366; first compound 0.003162 µM): 0.379 | relative viability (HCC-366; first compound 0.01 µM): 0.396 | relative viability (HCC-366; first compound 0.03162 µM): 0.36 | relative viability (HCC-366; first compound 0.1 µM): 0.303 | relative viability (ABC-1; first compound 0.001 µM): 0.634 | relative viability (ABC-1; first compound 0.003162 µM): 0.697 | relative viability (ABC-1; first compound 0.01 µM): 0.775 | relative viability (ABC-1; first compound 0.03162 µM): 0.699 | relative viability (ABC-1; first compound 0.1 µM): 0.466 | relative viability (NCI-H2228; first compound 0.001 µM): 0.677 | relative viability (NCI-H2228; first compound 0.003162 µM): 0.924 | relative viability (NCI-H2228; first compound 0.01 µM): 0.935 | relative viability (NCI-H2228; first compound 0.03162 µM): 0.395 | relative viability (NCI-H2228; first compound 0.1 µM): 0.406 | relative viability (ChaGo-K-1; first compound 0.001 µM): 0.898 | relative viability (ChaGo-K-1; first compound 0.003162 µM): 1.25 | relative viability (ChaGo-K-1; first compound 0.01 µM): 1.06 | relative viability (ChaGo-K-1; first compound 0.03162 µM): 0.873 | relative viability (ChaGo-K-1; first compound 0.1 µM): 0.894 | relative viability (EPLC-272H; first compound 0.001 µM): 0.348 | relative viability (EPLC-272H; first compound 0.003162 µM): 0.345 | relative viability (EPLC-272H; first compound 0.03162 µM): 0.291 | relative viability (EPLC-272H; first compound 0.1 µM): 0.39 | relative viability (NCI-H1944; first compound 0.001 µM): 0.279 | relative viability (NCI-H1944; first compound 0.003162 µM): 0.335 | relative viability (NCI-H1944; first compound 0.01 µM): 0.372 | relative viability (NCI-H1944; first compound 0.03162 µM): 0.365 | relative viability (NCI-H1944; first compound 0.1 µM): 0.378 | relative viability (SW 1573; first compound 0.001 µM): 0.391 | relative viability (SW 1573; first compound 0.003162 µM): 0.408 | relative viability (SW 1573; first compound 0.01 µM): 0.363 | relative viability (SW 1573; first compound 0.03162 µM): 0.271 | relative viability (SW 1573; first compound 0.1 µM): 0.32 | relative viability (NCI-H2009; first compound 0.001 µM): 0.21 | relative viability (NCI-H2009; first compound 0.003162 µM): 0.191 | relative viability (NCI-H2009; first compound 0.01 µM): 0.193 | relative viability (NCI-H2009; first compound 0.03162 µM): 0.211 | relative viability (NCI-H2009; first compound 0.1 µM): 0.191 | relative viability (NCI-H2023; first compound 0.001 µM): 0.395 | relative viability (NCI-H2023; first compound 0.003162 µM): 0.401 | relative viability (NCI-H2023; first compound 0.01 µM): 0.457 | relative viability (NCI-H2023; first compound 0.03162 µM): 0.333 | relative viability (NCI-H2023; first compound 0.1 µM): 0.419 | relative viability (NCI-H2347; first compound 0.001 µM): 0.452 | relative viability (NCI-H2347; first compound 0.003162 µM): 0.419 | relative viability (NCI-H2347; first compound 0.01 µM): 0.474 | relative viability (NCI-H2347; first compound 0.03162 µM): 0.43 | relative viability (NCI-H2347; first compound 0.1 µM): 0.396 | relative viability (HCC-15; first compound 0.001 µM): 0.688 | relative viability (HCC-15; first compound 0.003162 µM): 0.882 | relative viability (HCC-15; first compound 0.01 µM): 0.87 | relative viability (HCC-15; first compound 0.03162 µM): 0.578 | relative viability (HCC-15; first compound 0.1 µM): 0.476 | relative viability (HCC-44; first compound 0.001 µM): 0.911 | relative viability (HCC-44; first compound 0.003162 µM): 0.933 | relative viability (HCC-44; first compound 0.01 µM): 0.927 | relative viability (HCC-44; first compound 0.1 µM): 0.931 | relative viability (LCLC-103H; first compound 0.001 µM): 0.425 | relative viability (LCLC-103H; first compound 0.003162 µM): 0.403 | relative viability (LCLC-103H; first compound 0.01 µM): 0.46 | relative viability (LCLC-103H; first compound 0.03162 µM): 0.489 | relative viability (LCLC-103H; first compound 0.1 µM): 0.44 | relative viability (COR-L23; first compound 0.001 µM): 0.288 | relative viability (COR-L23; first compound 0.003162 µM): 0.301 | relative viability (COR-L23; first compound 0.01 µM): 0.317 | relative viability (COR-L23; first compound 0.03162 µM): 0.268 | relative viability (COR-L23; first compound 0.1 µM): 0.223 | relative viability (HCC-827; first compound 0.001 µM): 0.56 | relative viability (HCC-827; first compound 0.003162 µM): 0.451 | relative viability (HCC-827; first compound 0.03162 µM): 0.435 | relative viability (HCC-827; first compound 0.1 µM): 0.469 | relative viability (PC-14; first compound 0.001 µM): 0.45 | relative viability (PC-14; first compound 0.003162 µM): 0.741 | relative viability (PC-14; first compound 0.01 µM): 0.666 | relative viability (PC-14; first compound 0.03162 µM): 0.426 | relative viability (PC-14; first compound 0.1 µM): 0.713 | relative viability (NCI-H2405; first compound 0.001 µM): 0.493 | relative viability (NCI-H2405; first compound 0.003162 µM): 0.485 | relative viability (NCI-H2405; first compound 0.01 µM): 0.529 | relative viability (NCI-H2405; first compound 0.03162 µM): 0.467 | relative viability (NCI-H2405; first compound 0.1 µM): 0.404 | relative viability (NCI-H1793; first compound 0.001 µM): 0.332 | relative viability (NCI-H1793; first compound 0.003162 µM): 0.352 | relative viability (NCI-H1793; first compound 0.01 µM): 0.307 | relative viability (NCI-H1793; first compound 0.03162 µM): 0.281 | relative viability (NCI-H1793; first compound 0.1 µM): 0.3
